Numbered stars: 1 amine (or outer) side, 2 acyl side, 3 side chain; on linkers, the order of the positions; unused ones are H or OH. Square brackets hold non-standard residues; d marks the D form. Primed or numbered codes have the meaning given here. Side chains are listed from the residue outwards. Ends that are not written are not given here. * marks the point of attachment. C18 diacid = O=C(O)CCCCCCCCCCCCCCCCC(=O)*; C16 diacid = O=C(O)CCCCCCCCCCCCCCC(=O)*; γGlu = O=C(O)[C@H](CCC(=O)[*:2])N[*:1]; Palmitoyl = CCCCCCCCCCCCCCCC(=O)*; PEG2′ = not defined here; Aib = CC(C)(N)C(=O)O
Tested on: human hepatic stellate cells (LX-2)
Assay: In vitro inhibition of hepatic fibrosis: expression of activation marker α-SMA in LX-2 cells (Western Blot, β-actin internal reference)
Type: cell-based
Conditions: 10.0 μM, 48 hours, negative control (PBS) = 100%
Experimental: Hepatic stellate cell strain LX-2 was selected to study and observe the effect of different doses of test substances on the expression of LX-2 cell activation marker α-SMA. Hepatic stellate cell LX-2 was laid on 35 mm cell culture plate, cultured with DMEM (high glucose)+10% FBS+1% double-antibody culture medium (Thermo Fisher), placed overnight when the cells grew to 70% convergence at 37° C. and under the condition of 5% CO2, and treated with the above GLP-1R/GCGR dual target agonist polypeptides 1-48 (dissolved in PBS) for 48 hours the next day morning to extract cell protein, carry out Western Blot, and take β-actin as internal reference and analyze the expression quantities of α-SMA and β-actin by a gray level of Image J 1.50i. PBS with the same volume as that in experimental group was added in negative control. […] The integrating gray level of α-SMA/β-actin in the negative control group was 100% to analyze the in vitro inhibition activity of hepatic fibrosis of tested polypeptide.

| Substance | Relative expression of α-SMA (α-SMA/β-actin, %) [%] |
| --- | --- |
| His-(D-Ser)-Gln-Gly-Thr-Phe-Thr-Ser-Asp-Tyr-Ser-Lys-Tyr-Leu-Asp-Glu-Lys-Ala-Ala-Lys(PEG2-PEG2-γGlu-CO(CH2)14CH3)-Glu-Phe-Ile-Glu-Trp-Leu-Leu-Arg-Ala-NH2 (H[dS]QGTFTSDYSKYLDEKAAK([PEG2′-PEG2′-γGlu-Palmitoyl])EFIEWLLRA-NH2) [Compound 23] | 45.91 |
| His-(D-Ser)-Gln-Gly-Thr-Phe-Thr-Ser-Asp-Tyr-Ser-Lys-Tyr-Leu-Asp-Glu-Lys-Ala-Ala-Lys(PEG2-PEG2-γGlu-CO(CH2)14CO2H)-Glu-Phe-Ile-Glu-Trp-Leu-Leu-Asn-Gly-Gly-Pro-Ser-Ser-Gly-Ala-Pro-Pro-Pro-Ser-NH2 (H[dS]QGTFTSDYSKYLDEKAAK([PEG2′-PEG2′-γGlu-C16 diacid])EFIEWLLNGGPSSGAPPPS-NH2) [Compound 27] | 32.34 |
| His-(D-Ser)-Gln-Gly-Thr-Phe-Thr-Ser-Asp-Tyr-Ser-Lys-Tyr-Leu-Asp-Lys(PEG2-PEG2-CO(CH2)16CO2H)-Arg-Arg-Ala-Gla-Asp-Phe-Val-Gln-Trp-Leu-Met-Asn-Thr-Gly-Gly-Pro-Ser-Ser-Gly-Ala-Pro-Pro-Pro-Ser-NH2 (H[dS]QGTFTSDYSKYLDK([PEG2′-PEG2′-C18 diacid])RRAQDFVQWLMNTGGPSSGAPPPS-NH2; also: position 20: name writes Gla, letters give Q) [Compound 35] | 51.28 |
| His-(D-Ser)-Gln-Gly-Thr-Phe-Thr-Ser-Asp-Lys(PEG2-PEG2-CO(CH2)14CH3)-Ser-Lys-Tyr-Leu-Asp-Aib-Arg-Arg-Ala-Gln-Asp-Phe-Val-Gln-Trp-Leu-Met-Asn-Thr-Gly-Gly-Pro-Ser-Ser-Gly-Ala-Pro-Pro-Pro-Ser-NH2 (H[dS]QGTFTSDK([PEG2′-PEG2′-Palmitoyl])SKYLD[Aib]RRAQDFVQWLMNTGGPSSGAPPPS-NH2) [Compound 31] | 36.89 |
| His-(D-Ser)-Gln-Gly-Thr-Phe-Thr-Ser-Asp-Tyr-Ser-Lys-Tyr-Leu-Asp-Aib-Lys(PEG2-PEG2-γGlu-CO(CH2)14CH3)-Arg-Ala-Gln-Asp-Phe-Val-Gln-Trp-Leu-Met-Asn-Thr-Gly-Gly-Pro-Ser-Ser-Gly-Ala-Pro-Pro-Pro-Ser-NH2 (H[dS]QGTFTSDYSKYLD[Aib]K([PEG2′-PEG2′-γGlu-Palmitoyl])RAQDFVQWLMNTGGPSSGAPPPS-NH2) [Compound 33] | 35.45 |
| His-(D-Ser)-Gln-Gly-Thr-Phe-Thr-Ser-Asp-Tyr-Ser-Lys(PEG2-PEG2-CO(CH2)16CO2H)-Lys-Leu-Asp-Aib-Arg-Arg-Ala-Gln-Asp-Phe-Val-Gln-Trp-Leu-Met-Asn-Thr-Gly-Gly-Pro-Ser-Ser-Gly-Ala-Pro-Pro-Pro-Ser-NH2 (H[dS]QGTFTSDYSK([PEG2′-PEG2′-C18 diacid])KLD[Aib]RRAQDFVQWLMNTGGPSSGAPPPS-NH2) [Compound 2] | 41.62 |
| His-(D-Ser)-Gln-Gly-Thr-Phe-Thr-Ser-Asp-Lys(PEG)-PEG2-γGlu-CO(CH2)14CH3)-Ser-Lys-Tyr-Leu-Asp-Aib-Arg-Arg-Ala-Gln-Asp-Phe-Val-Gln-Trp-Leu-Met-Asn-Thr-Gly-Gly-Pro-Ser-Ser-Gly-Ala-Pro-Pro-Pro-Ser-NH2 (H[dS]QGTFTSDKSKYLD[Aib]RRAQDFVQWLMNTGGPSSGAPPPS-NH2; not fully specified (residue 10); printed as His-(D-Ser)-Gln-Gly-Thr-Phe-Thr-Ser-Asp-Lys(PEG2-PEG2-γGln-CO(CH2)14CH3)-Ser-Lys-Tyr-Leu-Asp-Aib-Arg-Arg-Ala-Gln-Asp-Phe-Val-Gln-Trp-Leu-Met-Asn-Thr-Gly-Gly-Pro-Ser-Ser-Gly-Ala-Pro-Pro-Pro-Ser-NH2; also: first PEG unit on Lys10 of unstated size) [Compound 4] | 33.50 |
